Laboratory results: patent publication US9289456B2 (priority 2010, dated 2016)
Several values for one entry are separate records, joined by “and”; a condition that tells them apart may be missing. Identical values can stand only once. Like-named read-outs stand apart in the source and are kept apart here. Marks after values point to notes of the source that are not given here.

Key:
VSV-GFP [1] = assay type: cell-based, Vesicular Stomatitis Virus
VSV-GFP [2] = test: microbe, parasite or virus in culture; assay type: cell-based, Vesicular Stomatitis Virus
Nup98 = test: cells; assay type: cell-based; settings: Homo sapiens, HeLa, 24 hrs, read-out: Nup98 protein level, % of control
Flotillin-1 = test: cells; assay type: cell-based, human
Rae1 = test: cells; assay type: cell-based; settings: Homo sapiens, HeLa, 24 hrs, read-out: Rae1 protein level, % of control
MxA = assay type: cell-based, human; settings: 24 hrs

Molecule: Methyl-β-cyclodextrin [MβCD]
- VSV G protein level, % of VSV control infection (VSV-GFP [1]): 150% and 195% and 247% and 182% and 210%
- VSV N/P protein level, % of VSV control infection (VSV-GFP [1]): 153% and 220% and 150% and 275% and 147% and 162%
- Cell survival (HeLa cells): ~20%
- Toxicity to HeLa cells (HeLa cells): highly toxic
- Attenuation of viral titers by pretreatment (VSV-GFP [2]): attenuated
- Fold decrease of VSV titers (VSV-GFP [2]): 160 fold
- VSV titer after pretreatment (VSV-GFP [2]): 5.25×10^4 (+/1−5.5×10^3) pfu/ml

Molecule: CC[C@H](C)C(=O)O[C@H]1C[C@H](O)C=C2C=C[C@H](C)[C@H](CC[C@@H](O)C[C@@H](O)CC(=O)O)[C@H]21 [pravastatin]
- Cell death rate, slope d (HeLa cells): −1.20 % cells/μM Prava
- Cell death rate, slope c (HeLa cells; human): −1.78 % cells/μM Prava

Molecule: CC[C@H](C)C(=O)O[C@H]1C[C@@H](C)C=C2C=C[C@H](C)[C@H](CC[C@@H]3C[C@@H](O)CC(=O)O3)[C@H]21 [lovastatin]
- Cell survival (HeLa cells): ~30%
- Toxicity to HeLa cells (HeLa cells): highly toxic

Molecule: CCC(C)(C)C(=O)O[C@H]1C[C@@H](C)C=C2C=C[C@H](C)[C@H](CC[C@@H]3C[C@@H](O)CC(=O)O3)[C@H]21 [simvastatin]
- activity at 0.125 µM (Nup98; 0.125 μM): 180%
- activity at 0.5 µM (Nup98; 0.5 μM): 240%
- activity at 2 µM (Nup98; 2.0 μM): 260%
- Pretreatment time required to inhibit VSV protein levels (VSV-GFP [1]): ≥ 4 h
- Cell death rate (Δ% cell death per ΔμM), slope b (HeLa cells): −2.61 % cells/μM Sim
- Slope a (m), relative trend of cell survival, FIG. 18 (HeLa cells; 0.125-2 μM 8 hrs): −6.54
- Slope b (m), relative trend of cell survival, FIG. 18 (HeLa cells; 0.125-2 μM 8 hrs): −10.46
- Cell death rate (Δ% cell death per ΔμM), slope a (HeLa cells; human): −1.63 % cells/μM Sim
- Flotillin-1 levels, % of control (Flotillin-1; 0.125 µM): ~160% and ~100%
- Flotillin-1 levels, % of control (Flotillin-1; 0.5 µM): ~90%
- activity at 0.5 µM (Flotillin-1; Homo sapiens, HeLa, read-out: Flotillin-1 levels, % of control): ~75%
- activity at 0.125 µM (Rae1; 0.125 μM): 196%
- activity at 0.5 µM (Rae1; 0.5 μM): 310%
- activity at 2 µM (Rae1; 2.0 μM): 390%
- Decrease of pfu in log-units (VSV-GFP [2]): 2 log-units
- Fold lower pfu than control VSV-infected cells (VSV-GFP [2]): 660 fold
- Pfu values (viral titer of supernatant) (VSV-GFP [2]): 1.80×10^4 (+/−3×10^3) pfu/ml
- IC50 (VSV-GFP [2]; Vesicular stomatitis virus, HeLa, read-out: Concentration needed for reduction of pfu values to half of control (IC50)): 278 nM
- MxA protein levels (MxA; 0.125 μM): ~400%
- MxA protein levels (MxA; 0.5 μM): 650%
- MxA protein levels (MxA; 2.0 μM): 150%
